According to patent US9012655B2, “Antimicrobial/adjuvant compounds and methods” (Denouamed, Inc., priority 2011, dated 2015):
Converted amounts (≈) assume the structure as drawn.

Legend:
Type in all cases: cell-based
E. coli D22 = assay: MIC, NCCLS M7-A6 broth microdilution, E. coli D22; conditions: 16 to 20 h, 35 degrees Celsius
How it was run: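 Broth microdilution per NCCLS M7-A6 in cation-adjusted Mueller-Hinton broth, doubling dilutions, inoculum 5×10^5 CFU/mL, DMSO controls included. Read after 16–20 h at 35 °C in ambient air; MIC is lowest concentration preventing visible growth.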

Bacillus cereus NCTC6349 = assay: MIC panel of challenge pathogens (CLSI); conditions: Bacillus cereus NCTC6349
How it was run: (§1)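 Broth microdilution per CLSI guidelines. Final inoculum 2-8×10^5 CFU/ml, compounds serially two-fold diluted from 128 mg/L top concentration. Incubated in the dark at 30-37° C for 24-48 h, aerobic or anaerobic as appropriate. MIC read visually as 100% inhibition endpoint; MIC50 and MIC80 also reported.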

[1] = tested on: Enterococcus faecalis ATCC29212; assay: MIC panel of challenge pathogens (CLSI); conditions: Enterococcus faecalis ATCC29212
How it was run: as §1

[2] = tested on: Enterococcus faecium ATCC700221; assay: MIC panel of challenge pathogens (CLSI); conditions: Enterococcus faecium ATCC700221
How it was run: as §1

[3] = tested on: Staphylococcus aureus ATCC43300; assay: MIC panel of challenge pathogens (CLSI); conditions: Staphylococcus aureus ATCC43300
How it was run: as §1

[4] = tested on: Staphylococcus aureus AUR131 007035; assay: MIC panel of challenge pathogens (CLSI); conditions: Staphylococcus aureus AUR131 007035
How it was run: as §1

[5] = tested on: Staphylococcus aureus AUR58 7005; assay: MIC panel of challenge pathogens (CLSI); conditions: Staphylococcus aureus AUR58 7005
How it was run: as §1

[6] = tested on: Staphylococcus aureus AUR59 7005; assay: MIC panel of challenge pathogens (CLSI); conditions: Staphylococcus aureus AUR59 7005
How it was run: as §1

[7] = tested on: Staphylococcus aureus AUR60 7005; assay: MIC panel of challenge pathogens (CLSI); conditions: Staphylococcus aureus AUR60 7005
How it was run: as §1

[8] = tested on: Staphylococcus aureus EUP MRSA002; assay: MIC panel of challenge pathogens (CLSI); conditions: Staphylococcus aureus EUP MRSA002
How it was run: as §1

[9] = tested on: Staphylococcus aureus EUP MRSA004; assay: MIC panel of challenge pathogens (CLSI); conditions: Staphylococcus aureus EUP MRSA004
How it was run: as §1

[10] = tested on: Staphylococcus aureus EUP SAU040; assay: MIC panel of challenge pathogens (CLSI); conditions: Staphylococcus aureus EUP SAU040
How it was run: as §1

[11] = tested on: Staphylococcus aureus NRS1 (ATCC700699); assay: MIC panel of challenge pathogens (CLSI); conditions: Staphylococcus aureus NRS1 (ATCC700699)
How it was run: as §1

[12] = tested on: Staphylococcus aureus NRS2 (ATCC700698); assay: MIC panel of challenge pathogens (CLSI); conditions: Staphylococcus aureus NRS2 (ATCC700698)
How it was run: as §1

[13] = tested on: Staphylococcus aureus NRS382; assay: MIC panel of challenge pathogens (CLSI); conditions: Staphylococcus aureus NRS382
How it was run: as §1

[14] = tested on: Staphylococcus aureus NRS384; assay: MIC panel of challenge pathogens (CLSI); conditions: Staphylococcus aureus NRS384
How it was run: as §1

[15] = tested on: Staphylococcus epidermidis NRS122; assay: MIC panel of challenge pathogens (CLSI); conditions: Staphylococcus epidermidis NRS122
How it was run: as §1

[16] = tested on: Staphylococcus epidermidis NRS7; assay: MIC panel of challenge pathogens (CLSI); conditions: Staphylococcus epidermidis NRS7
How it was run: as §1

**Q.** For `Cc1ccc(-c2cc(-c3nn[nH]n3)cc(-c3ccccc3-c3ccccc3)c2)c2ccccc12` [DNM0474], which “MIC E coli D22” value (E. coli D22) is on record?
**A.** >125 µM

**Q.** What about the 100% inhibition (Bacillus cereus NCTC6349) of the same compound?
**A.** ≦0.25 μg/mL

**Q.** What about the “MIC50 (50%)” value (Bacillus cereus NCTC6349) of the same compound?
**A.** ≦0.25 μg/mL

**Q.** And the “MIC80 (80%)” value (Bacillus cereus NCTC6349)?
**A.** ≦0.25 μg/mL

**Q.** What about the 100% inhibition [1] of the same compound?
**A.** 1 µg/mL

**Q.** And the “MIC50 (50%)” value [1]?
**A.** 1 µg/mL (≈ 2.28 µM)

**Q.** What about the “MIC80 (80%)” value [1] of the same compound?
**A.** 1 µg/mL (≈ 2.28 µM)

**Q.** What about the 100% inhibition [2] of the same compound?
**A.** 1 µg/mL

**Q.** What about the “MIC50 (50%)” value [2] of the same compound?
**A.** 1 µg/mL (≈ 2.28 µM)

**Q.** What about the “MIC80 (80%)” value [2] of the same compound?
**A.** 1 µg/mL (≈ 2.28 µM)

**Q.** And the 100% inhibition [3]?
**A.** 0.5 µg/mL

**Q.** And the “MIC50 (50%)” value [3]?
**A.** 0.5 µg/mL (≈ 1.14 µM)

**Q.** What about the “MIC80 (80%)” value [3] of the same compound?
**A.** 0.5 µg/mL (≈ 1.14 µM)

**Q.** And the 100% inhibition [4]?
**A.** 0.5 µg/mL

**Q.** What about the “MIC50 (50%)” value [4] of the same compound?
**A.** 0.5 µg/mL (≈ 1.14 µM)

**Q.** What about the “MIC80 (80%)” value [4] of the same compound?
**A.** 0.5 µg/mL (≈ 1.14 µM)

**Q.** What about the 100% inhibition [5] of the same compound?
**A.** 1 µg/mL

**Q.** And the “MIC50 (50%)” value [5]?
**A.** 0.5 µg/mL (≈ 1.14 µM)

**Q.** And the “MIC80 (80%)” value [5]?
**A.** 1 µg/mL (≈ 2.28 µM)

**Q.** And the 100% inhibition [6]?
**A.** 0.5 µg/mL

**Q.** What about the “MIC50 (50%)” value [6] of the same compound?
**A.** 0.5 µg/mL (≈ 1.14 µM)

**Q.** What about the “MIC80 (80%)” value [6] of the same compound?
**A.** 0.5 µg/mL (≈ 1.14 µM)

**Q.** And the 100% inhibition [7]?
**A.** 0.5 µg/mL

**Q.** And the “MIC50 (50%)” value [7]?
**A.** 0.5 µg/mL (≈ 1.14 µM)

**Q.** And the “MIC80 (80%)” value [7]?
**A.** 0.5 µg/mL (≈ 1.14 µM)

**Q.** And the 100% inhibition [8]?
**A.** 1 µg/mL

**Q.** And the “MIC50 (50%)” value [8]?
**A.** 1 µg/mL (≈ 2.28 µM)

**Q.** What about the “MIC80 (80%)” value [8] of the same compound?
**A.** 1 µg/mL (≈ 2.28 µM)

**Q.** And the 100% inhibition [9]?
**A.** 0.5 µg/mL

**Q.** And the “MIC50 (50%)” value [9]?
**A.** 0.5 µg/mL (≈ 1.14 µM)

**Q.** What about the “MIC80 (80%)” value [9] of the same compound?
**A.** 0.5 µg/mL (≈ 1.14 µM)

**Q.** And the 100% inhibition [10]?
**A.** 0.25 µg/mL

**Q.** What about the “MIC50 (50%)” value [10] of the same compound?
**A.** 0.5 µg/mL (≈ 1.14 µM)

**Q.** What about the “MIC80 (80%)” value [10] of the same compound?
**A.** 0.5 µg/mL (≈ 1.14 µM)

**Q.** And the 100% inhibition [11]?
**A.** 0.5 µg/mL

**Q.** And the “MIC50 (50%)” value [11]?
**A.** 0.25 µg/mL (≈ 0.57 µM)

**Q.** What about the “MIC80 (80%)” value [11] of the same compound?
**A.** 0.5 µg/mL (≈ 1.14 µM)

**Q.** And the 100% inhibition [12]?
**A.** 0.5 µg/mL

**Q.** And the “MIC50 (50%)” value [12]?
**A.** 0.5 µg/mL (≈ 1.14 µM)

**Q.** What about the “MIC80 (80%)” value [12] of the same compound?
**A.** 0.5 µg/mL (≈ 1.14 µM)

**Q.** And the 100% inhibition [13]?
**A.** 0.5 µg/mL

**Q.** And the “MIC50 (50%)” value [13]?
**A.** 0.5 µg/mL (≈ 1.14 µM)

**Q.** What about the “MIC80 (80%)” value [13] of the same compound?
**A.** 0.5 µg/mL (≈ 1.14 µM)

**Q.** What about the 100% inhibition [14] of the same compound?
**A.** 0.5 µg/mL

**Q.** What about the “MIC50 (50%)” value [14] of the same compound?
**A.** 0.5 µg/mL (≈ 1.14 µM)

**Q.** What about the “MIC80 (80%)” value [14] of the same compound?
**A.** 0.5 µg/mL (≈ 1.14 µM)

**Q.** What about the 100% inhibition [15] of the same compound?
**A.** 16 µg/mL

**Q.** And the “MIC50 (50%)” value [15]?
**A.** 4 µg/mL (≈ 9.12 µM)

**Q.** And the “MIC80 (80%)” value [15]?
**A.** 8 µg/mL (≈ 18.2 µM)

**Q.** And the 100% inhibition [16]?
**A.** 1 µg/mL

**Q.** What about the “MIC50 (50%)” value [16] of the same compound?
**A.** 0.5 µg/mL (≈ 1.14 µM)

**Q.** And the “MIC80 (80%)” value [16]?
**A.** 1 µg/mL (≈ 2.28 µM)
